From PMC9481570, “A small molecule antagonist of SMN disrupts the interaction between SMN and RNAP II” (Nature Communications, 2022) come the findings set out here.

SMILES strings stand for the structures. Where only a bound is given, the exact number is not on record here.

In test [1] the test system is UHRF1_TTD aromatic cage residues mutated to alanine. In words: ITC binding to UHRF1 TTD aromatic cage mutants. To be noted: Supplementary Fig. 9e. The source says: (§1) The coding DNA fragments of following Tudor domains were cloned into pET28-MHL vector: SMN (aa 82–147), UHRF1 (aa 126–285), SMNDC1 (aa 53–130), TDRD3 (aa 554–611), SND1 (aa 650–910), TDRD2 (aa 327–420), FXR1 (aa 2–132), PHF1 (aa 28–87), SGF29 (aa 115–293), JMJD2A (aa 897–1101), 53BP1 (aa 1483–1606), SETDB1 (aa 190–410), LBR (aa 1–67), ZGPAT (aa 120–271). The coding regions of chromodomain of CBX7 (aa 8–62), PWWP domain of DNMT3A (aa 275–417), WD40 repeats of WDR5 (aa 24–334) and CW domain of ZCWPW2 (aa 21–78) were also subcloned into pET28-MHL vector to generate N-terminally His-tagged fusion protein. The MBT repeats of L3MBTL1 (aa 200–522) and L3MBTL2 (aa 170–625) were subcloned into pET28GST-LIC vector to generate N-terminally GST-His-tagged fusion protein. All the plasmids were generated by ligase independent cloning (Vazyme Biotech, C112 or ABclonal Technology, RK21020). […] The molecular weight of all protein samples was measured by mass spectrometry.
(§2) For the ITC measurement, the concentrated proteins were diluted into 20 mM Tris-HCl, pH 7.5, 150 mM NaCl (ITC buffer); the lyophilized compounds were dissolved in the same buffer, and the pH value was adjusted by adding 2 M NaOH or 2 M HCl. […] Compound concentrations were calculated from the mass and the volume of the solvent. […]

A further test deals with T1, SMN_Y130A (Homo sapiens, UniProt Q16637, Y130A).
T1 construct: cloned into pET28-MHL vector: SMN (aa 82–147); His (N, cleaved yes); made in house; host or cells: E. coli BL21 (DE3) Codon plus RIL
T1 sequence (Q16637 82-147 Y130A): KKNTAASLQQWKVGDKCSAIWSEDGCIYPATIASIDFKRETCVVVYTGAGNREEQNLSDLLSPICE
The test can be described thus: ITC binding to SMN Tudor mutant Y130A. The following applies: Fig. 3d.
Description: as §1, §2

The next test addresses T2, SMNDC1 (Homo sapiens, UniProt O75940).
T2 construct: SMNDC1 (aa 53–130); His (N, cleaved yes); made in house; host or cells: E. coli BL21 (DE3) Codon plus RIL
The test can be described thus: ITC binding to SMNDC1. The following applies: Supplementary Fig. 2; read-out: Kd, ITC binding curve, SMNDC1.
Description: as §1, §2

In the next test the target is T3, SMN_W102F (Homo sapiens, UniProt Q16637, W102F).
T3 construct: SMN (aa 82–147); His (N, cleaved yes); made in house; host or cells: E. coli BL21 (DE3) Codon plus RIL
T3 sequence (Q16637 82-147 W102F): as the sequence (Q16637 82-147 Y130A) above, with W21F, A49Y counted along it
In words: ITC binding to SMN Tudor mutant W102F. To be noted: Fig. 3d.
Description: as §1, §2

T2 sequence (O75940 53-130): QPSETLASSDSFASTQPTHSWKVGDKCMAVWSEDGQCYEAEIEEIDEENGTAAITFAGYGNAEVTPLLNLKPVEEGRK

As for `Cn1c2c(c(=N)c3c1CCC3)CCC2` [Compound 1, 4-methyl-2,3,4,5,6,7-hexahydrodicyclopenta[b,e]pyridin-8(1H)-imine], in test [1], the “binding affinity to UHRF1_TTD aromatic cage alanine mutants” value is listed as “not affected significantly”. Further, the Kd (in general, the concentration at which binding is half-saturated) on SMN_Y130A was over 244 µM; at SMNDC1 it was 2.8 ± 0.2 µM; on SMN_W102F it was over 100 µM.
